Test results from PMC3413214, “Structural and biochemical characterization of a trapped coenzyme A adduct of Caenorhabditis elegans glucosamine-6-phosphate N-acetyltransferase 1” (Acta Crystallographica Section D: Biological Crystallography, 2012).

Assays:
CeGNA1 [1] = biological target: T1, CeGNA1 (Caenorhabditis elegans, UniProt Q17427); experiment: X-ray crystal structure, […] Å; MALDI-TOF mass spectrometry; type: binding; details: covalent; disulfide to Cys141, inactive enzyme, reversed by DTT; nonreducing crystallisation, pH 8.5
T1 construct: gene gna-1; full-length, 165 residues; GST fusion from pGEX-6P-1 in E. coli BL21(DE3) pLysS, GST cut with PreScission protease; homodimer; 18 876 Da by MALDI
T1 sequence (Q17427 whole entry, the tested form may be a part): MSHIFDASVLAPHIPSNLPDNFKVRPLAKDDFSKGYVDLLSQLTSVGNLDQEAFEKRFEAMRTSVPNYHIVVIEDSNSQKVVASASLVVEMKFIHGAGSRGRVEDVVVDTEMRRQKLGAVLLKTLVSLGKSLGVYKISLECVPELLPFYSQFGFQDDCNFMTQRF

CeGNA1 [2] = biological target: T1, CeGNA1; experiment: X-ray crystal structure, […] Å; type: binding; details: ternary product complex with CoA; acceptor (GlcN-6P) subsite at dimer interface; crystals at pH 8.5

In the case of `CC(C)(COP(=O)(O)OP(=O)(O)OC[C@H]1O[C@@H](n2cnc3c(N)ncnc32)[C@H](O)[C@@H]1OP(=O)(O)O)[C@@H](O)C(=O)NCCC(=O)NCCS` [CoA], the “X-ray crystal structure, 1.55 Å; MALDI-TOF mass spectrometry” value (CeGNA1 [1]) is reported as “the CoA thiol has formed a covalent complex with the enzyme through a disulfide”.
`CC(=O)N[C@H]1C(O)O[C@H](COP(=O)(O)O)[C@@H](O)[C@@H]1O` (some centres unmarked) [GlcNAc-6P] was tested, and the “X-ray crystal structure, 1.75 Å” value (CeGNA1 [2]) was “occupied by the products CoA and GlcNAc-6-phosphate, both with well defined electron density”.
